Measurements reported in US9968649B2, “Vasopressin formulations for use in treatment of hypotension” (Par Pharmaceutical, Inc., priority 2015, dated 2018).
“And” between values parts separate entries of the source, which are not always exact repeats. Identical values can stand only once. Like-named read-outs stand apart in the source and are kept apart here.

Assays:
[1] = Investigation of pH: vasopressin stability by HPLC after 60° C. for one week (Example 2); type: physicochemical; settings: 10 mM citrate buffer in isotonic saline
Method: To determine a possible pH for a vasopressin formulation with good shelf life, vasopressin formulations were prepared in 10 mM citrate buffer diluted in isotonic saline across a range of pH. Stability was assessed via HPLC as in EXAMPLE 1 after incubation of the formulations at 60° C. for one week. FIG. 9 illustrates the results of the experiment. […] At pH 3.5, the percent label claim (% LC) of vasopressin was highest, and the proportion of total impurities was lowest.

[2] = pH of stored samples (Example 8); type: physicochemical; settings: inverted
Method: (§1) Experiments were also conducted on the same samples above over the course of the experiments to measure the amount of individual impurities in the samples, pH of the samples, chlorobutanol content, particulate matter, antimicrobial effectiveness, and bacterial endotoxin levels (TABLES 25-42). (NR=no reading; ND=not determined; UI=unidentified impurity).

[3] = Chlorobutanol content of stored samples (Example 8); type: physicochemical; settings: inverted
Method: as §1

[4] = Particulate matter (USP) of stored samples (Example 8); type: physicochemical; settings: inverted
Method: as §1

[5] = Effect of pH 3.5-4.5 on vasopressin formulations, four weeks at 25° C. or 40° C. (Example 9); type: physicochemical
Method: To test of effect of pH on vasopressin formulations, solutions containing 20 units/mL vasopressin, adjusted to pH 3.5, 3.6, 3.7, 3.8, 3.9, 4, 4.1, 4.2, 4.3, 4.4, or 4.5 with 10 mM acetate buffer, were prepared. One mL of each of the vasopressin formulations was then filled into 10 cc vials.
The vasopressin formulations were stored for four weeks at: (i) 25° C.; or (ii) 40° C., and the assay (% label claim; vasopressin remaining) and % total impurities after four weeks were measured using the methods described in EXAMPLE 1. FIGS. 11 and 12 below display the results of the experiments at 25° C. The results of the experiments at 40° C. are included in FIGS. 13 and 14.

[6] = type: physicochemical
[7] = test system: Chinese hamster ovary (CHO) cell; test: In vitro Chinese hamster ovary (CHO) cell chromosome aberration test; type: cell-based
[8] = test system: patients with vasodilatory shock; settings: cited from earlier work
[9] = test system: septic shock and post-cardiotomy vasodilatory shock; settings: seven studies in septic shock and eight studies in post-cardiotomy vasodilatory shock; cited from earlier work
[10] = cited from earlier work
[11] = cited from earlier work; remark: listed apart in the source
spermatozoa = settings: mice; cited from earlier work
bacterial = test: In vitro bacterial mutagenicity (Ames) test

NC(=O)CC[C@@H]1NC(=O)[C@H](Cc2ccccc2)NC(=O)[C@H](Cc2ccc(O)cc2)NC(=O)[C@@H](N)CSSC[C@@H](C(=O)N2CCC[C@H]2C(=O)N[C@@H](CCCN=C(N)N)C(=O)NCC(N)=O)NC(=O)[C@H](CC(N)=O)NC1=O [Vasopressin, Cyclo (1-6) L-Cysteinyl-L-Tyrosyl-L-Phenylalanyl-L-Glutaminyl-L-Asparaginyl-L-Cysteinyl-L-Prolyl-L-Arginyl-L-Glycinamide]
pH at which the greatest level of stability was observed (highest % LC, lowest total impurities) [1]: 3.5
pH ([2]; 5° C., 1 month): 3.5 and 3.6
pH ([2]; 5° C., 2 months): 3.5 and 3.6
pH ([2]; 5° C., 3 months): 3.5 and 3.6
pH ([2]; 5° C., 6 months): 3.5 and 3.6
pH ([2]; 5° C., 9 months): 3.5 and 3.6
pH ([2]; 5° C., 12 months): 3.5 and 3.6
pH ([2]; 5° C., 18 months): 3.8 and 3.6 and 3.5
pH ([2]; 5° C., 24 months): 3.5 and 3.6
pH ([2]; 5° C., Initial): 3.5 and 3.6
pH ([2]; 40° C., 1 month): 3.3
pH ([2]; 40° C., 2 months): 3.2
pH ([2]; 40° C., 3 months): 3.1
pH ([2]; 40° C., Initial): 3.5
Chlorobutanol ([3]; 5° C., 1 month): 0.49% w/v and 0.48% w/v
Chlorobutanol ([3]; 5° C., 2 months): 0.48% w/v and 0.47% w/v
Chlorobutanol ([3]; 5° C., 3 months): 0.48% w/v and 0.47% w/v
Chlorobutanol ([3]; 5° C., 6 months): 0.47% w/v and 0.48% w/v
Chlorobutanol ([3]; 5° C., 9 months): 0.48% w/v and 0.47% w/v
Chlorobutanol ([3]; 5° C., 12 months): 0.48% w/v and 0.49% w/v
Chlorobutanol ([3]; 5° C., 18 months): 0.49% w/v and 0.48% w/v
Chlorobutanol ([3]; 5° C., 24 months): 0.49% w/v and 0.48% w/v
Chlorobutanol ([3]; 5° C., Initial): 0.48% w/v and 0.47% w/v
Chlorobutanol ([3]; 40° C., 1 month): 0.48% w/v
Chlorobutanol ([3]; 40° C., 2 months): 0.50% w/v
Chlorobutanol ([3]; 40° C., 3 months): 0.47% w/v
Chlorobutanol ([3]; 40° C., Initial): 0.49% w/v
Particulate Matter (USP) (≥10 μm) ([4]; 5° C., 1 month): 1 and 2
Particulate Matter (USP) (≥25 μm) ([4]; 5° C., 1 month): 0
Particulate Matter (USP) (≥10 μm) ([4]; 5° C., 2 months): 1
Particulate Matter (USP) (≥25 μm) ([4]; 5° C., 2 months): 0
Particulate Matter (USP) (≥10 μm) ([4]; 5° C., 3 months): 1 and 2
Particulate Matter (USP) (≥25 μm) ([4]; 5° C., 3 months): 0
Particulate Matter (USP) (≥10 μm) ([4]; 5° C., 6 months): 2 and 1
Particulate Matter (USP) (≥25 μm) ([4]; 5° C., 6 months): 0
Particulate Matter (USP) (≥25 μm) ([4]; 5° C., 9 months): 0
Particulate Matter (USP) (≥10 μm) ([4]; 5° C., 12 months): 2
Particulate Matter (USP) (≥25 μm) ([4]; 5° C., 12 months): 0
Particulate Matter (USP) (≥25 μm) ([4]; 5° C., 18 months): 0
Particulate Matter (USP) (≥25 μm) ([4]; 5° C., 24 months): 0
Particulate Matter (USP) (≥25 μm) ([4]; 5° C., Initial): 0
Particulate Matter (USP) (≥10 μm) ([4]; 40° C., 1 month): 1
Particulate Matter (USP) (≥25 μm) ([4]; 40° C., 1 month): 0
Particulate Matter (USP) (≥10 μm) ([4]; 40° C., 2 months): 1
Particulate Matter (USP) (≥25 μm) ([4]; 40° C., 2 months): 0
Particulate Matter (USP) (≥10 μm) ([4]; 40° C., 3 months): 1
Particulate Matter (USP) (≥25 μm) ([4]; 40° C., 3 months): 0
Particulate Matter (USP) (≥10 μm) ([4]; 40° C., Initial): 1
Particulate Matter (USP) (≥25 μm) ([4]; 40° C., Initial): 0
pH providing the highest stability ([5]; 25° C.): 3.7
pH with lowest level of impurities within pH 3.6 to 3.8 ([5]; 25° C.): 3.8
pH providing the highest stability ([5]; 40° C.): 3.6
pH with lowest level of impurities within pH 3.6 to 3.8 ([5]; 40° C.): 3.8
pH with lowest level of impurities within pH 3.6 to 3.8 ([6]; pH 3.6): 3.8
pH with lowest level of impurities within pH 3.7 to 3.8 ([6]; pH 3.7): 3.8
CHO cell chromosome aberration test result [7]: negative
time for pressor effect to fade ([8]; after stopping the infusion): ≤ 20 min
time of peak pressor effect ([8]; infusion of exogenous vasopressin): ≤ 15 min
hemodynamic effect at therapeutic doses ([8]; patients with vasodilatory shock): increases systemic vascular resistance and mean arterial blood pressure
tachyphylaxis or tolerance to the pressor effect ([8]; patients): no evidence for tachyphylaxis or tolerance
systolic and mean blood pressure following administration [9]: Increases in systolic and mean blood pressure
dose excreted unchanged in urine ([10]; human, in vivo): about 6%
apparent half-life ([10]; infusion rates 0.01-0.1 units/minute): ≤ 10 min
increase of clearance of vasopressin in pregnancy ([11]; at term): up to 5 fold
clearance of vasopressin in pregnancy ([11]; first trimester): only slightly increased
increase of clearance of vasopressin in pregnancy ([11]; third trimester): about 4 fold
effect on spermatozoa (spermatozoa): can have an effect on function and fertilizing ability of spermatozoa
bacterial mutagenicity (Ames) test result (bacterial): negative
